# In patent US20240158348A1, “HERBICIDAL CYCLIC AMIDES N-SUBSTITUTED WITH A HALOALKYLSULFONYLANILIDE GROUP” (FMC Corporation, priority 2021, published 2024):
# What was measured:
# Assay type in all cases: in vivo
# [1] = system: barnyardgrass (Echinochloa crusgalli); experiment: Test D flooded paddy test, barnyardgrass; design: key: 0 = no effect, 100 = complete control; conditions: 250 g ai/ha, Flood; applied to paddy water at 2-leaf stage; visual rating after 13 days; scale 0 (no effect) to 100 (complete control)
# Experimental: (§1) Plant species in the flooded paddy test selected from barnyardgrass (Echinochloa crusgalli), ducksalad (Heteranthera limosa), rice (Oryza sativa), and sedge, umbrella (small-flower umbrella sedge, Cyperus difformis) were grown to the 2-leaf stage for testing. At time of treatment, test pots were flooded to 3 cm above the soil surface, treated by application of test compounds directly to the paddy water, and then maintained at that water depth for the duration of the test. Treated plants and controls were maintained in a greenhouse for 13 days, after which time all species were compared to controls and visually evaluated. Plant response ratings, summarized in Table B, are based on a scale of 0 to 100 where 0 is no effect and 100 is complete control. A dash (-) response means no test result.
# [2] = system: ryegrass, Italian (Italian ryegrass, Lolium multiflorum); experiment: Test C preemergence, Italian ryegrass; conditions: 0 is no effect, 100 is complete control
# Description: (§2) Seeds of plant species selected from blackgrass (Alopecurus myosuroides), corn (Zea mays), foxtail, giant (giant foxtail, Setaria faberi), goosegrass (Eleusine indica), kochia (Bassia scoparia), oat, wild (wild oat, Avena fatua), pigweed, palmer (palmer amaranth, Amaranthus palmeri), ragweed (common ragweed, Ambrosia artemisiifolia), ryegrass, Italian (Italian ryegrass, Lolium multiflorum), soybean (Glycine max) and wheat (Triticum aestivum) were planted into a blend of loam soil and sand and treated preemergence with a directed soil spray using test chemicals formulated in a non-phytotoxic solvent mixture which included a surfactant.
# (§3) At the same time, plants selected from these crop and weed species and also galium (catchweed bedstraw, Galium aparine) and horseweed (Erigeron canadensis) were planted in pots containing the same blend of loam soil and sand and treated with postemergence applications of test chemicals formulated in the same manner. Plants ranged in height from 2 to 10 cm and were in the one- to two-leaf stage for the postemergence treatment. Treated plants and untreated controls were maintained in a greenhouse for 10 or 12 days, after which time all treated plants were compared to untreated controls and visually evaluated for injury. Plant response ratings, summarized in Table A, are based on a 0 to 100 scale where 0 is no effect and 100 is complete control. A dash (-) response means no test result.
# [3] = system: sedge, umbrella (small-flower umbrella sedge, Cyperus difformis); experiment: Test D flooded paddy test, umbrella sedge; design: key: 0 = no effect, 100 = complete control; conditions: 250 g ai/ha, Flood; applied to paddy water at 2-leaf stage; visual rating after 13 days; scale 0 (no effect) to 100 (complete control)
# Experimental: as §1
# [4] = system: oat, wild (wild oat, Avena fatua); experiment: Test C postemergence, wild oat
# Description: as §2, §3
# [5] = system: kochia (Bassia scoparia); experiment: Test C postemergence, kochia
# Description: as §2, §3
# [6] = system: kochia (Bassia scoparia); experiment: Test C preemergence, kochia; conditions: 0 is no effect, 100 is complete control
# Description: as §2, §3
# [7] = system: soybean (Glycine max); experiment: Test C postemergence, soybean; conditions: visual injury, 0 to 100 scale (0 no effect, 100 complete control)
# Description: as §2, §3
# [8] = system: blackgrass (Alopecurus myosuroides); experiment: Test C preemergence, blackgrass; conditions: 0 is no effect, 100 is complete control
# Description: as §2, §3
# [9] = system: wheat (Triticum aestivum); experiment: Test C postemergence, wheat; conditions: visual injury, 0 to 100 scale (0 no effect, 100 complete control)
# Description: as §2, §3
# [10] = system: pigweed, palmer (palmer amaranth, Amaranthus palmeri); experiment: Test C preemergence, palmer amaranth; conditions: 0 is no effect, 100 is complete control
# Description: as §2, §3
# [11] = system: foxtail, giant (giant foxtail, Setaria faberi); experiment: Test C preemergence, giant foxtail; conditions: 0 is no effect, 100 is complete control
# Description: as §2, §3
# [12] = system: corn (Zea mays); experiment: Test C preemergence, corn; conditions: 0 is no effect, 100 is complete control
# Description: as §2, §3
# [13] = system: rice (Oryza sativa); experiment: Test D flooded paddy test, rice; design: key: 0 = no effect, 100 = complete control; conditions: 250 g ai/ha, Flood; applied to paddy water at 2-leaf stage; visual rating after 13 days; scale 0 (no effect) to 100 (complete control)
# Experimental: as §1
# [14] = system: ragweed (common ragweed, Ambrosia artemisiifolia); experiment: Test C postemergence, ragweed; conditions: visual injury, 0 to 100 scale (0 no effect, 100 complete control)
# Description: as §2, §3
# [15] = system: ragweed (common ragweed, Ambrosia artemisiifolia); experiment: Test C preemergence, ragweed; conditions: 0 is no effect, 100 is complete control
# Description: as §2, §3
# [16] = system: goosegrass (Eleusine indica); experiment: Test C preemergence, goosegrass; conditions: 0 is no effect, 100 is complete control
# Description: as §2, §3
# [17] = system: wheat (Triticum aestivum); experiment: Test C preemergence, wheat; conditions: 0 is no effect, 100 is complete control
# Description: as §2, §3
# [18] = system: foxtail, giant (giant foxtail, Setaria faberi); experiment: Test C postemergence, giant foxtail
# Description: as §2, §3
# [19] = system: pigweed, palmer (palmer amaranth, Amaranthus palmeri); experiment: Test C postemergence, palmer amaranth; conditions: visual injury, 0 to 100 scale (0 no effect, 100 complete control)
# Description: as §2, §3
# [20] = system: galium (catchweed bedstraw, Galium aparine); experiment: Test C postemergence, galium
# Description: as §2, §3
# [21] = system: ryegrass, Italian (Italian ryegrass, Lolium multiflorum); experiment: Test C postemergence, Italian ryegrass; conditions: visual injury, 0 to 100 scale (0 no effect, 100 complete control)
# Description: as §2, §3
# [22] = system: goosegrass (Eleusine indica); experiment: Test C postemergence, goosegrass
# Description: as §2, §3
# [23] = system: horseweed (Erigeron canadensis); experiment: Test C postemergence, horseweed
# Description: as §2, §3
# [24] = system: corn (Zea mays); experiment: Test C postemergence, corn
# Description: as §2, §3
# [25] = system: blackgrass (Alopecurus myosuroides); experiment: Test C postemergence, blackgrass; conditions: 31 g ai/ha Postemergence; visual injury, 0 to 100 scale (0 no effect, 100 complete control)
# Description: as §2, §3
# [26] = system: ducksalad (Heteranthera limosa); experiment: Test D flooded paddy test, ducksalad; design: key: 0 = no effect, 100 = complete control; conditions: 250 g ai/ha, Flood; applied to paddy water at 2-leaf stage; visual rating after 13 days; scale 0 (no effect) to 100 (complete control)
# Experimental: as §1
# [27] = system: blackgrass (Alopecurus myosuroides); experiment: Test C postemergence, blackgrass; conditions: 125 g ai/ha Postemergence; 0 is no effect, 100 is complete control
# [28] = system: oat, wild (wild oat, Avena fatua); experiment: Test C preemergence, wild oat; conditions: 0 is no effect, 100 is complete control
# Description: as §2, §3
# [29] = system: soybean (Glycine max); experiment: Test C preemergence, soybean; conditions: 0 is no effect, 100 is complete control
# Description: as §2, §3
# [30] = 31 g ai/ha Postemergence, visual injury, 0 to 100 scale (0 no effect, 100 complete control)
# [31] = 125 g ai/ha Postemergence, 0 is no effect, 100 is complete control
smiles,measurement,setting,value
Cc1c(NS(=O)(=O)C(F)(F)F)cc(N2CCCC(OC3CCC3)C2=O)c(C)c1F (stereo not shown) [Compound 36],"Plant response rating, Barnyardgrass",[1],0
same,"Plant response rating (0 to 100 scale), Ryegrass, Italian",[2]; 31 g ai/ha Preemergence,100
same,"Plant response rating (0 to 100 scale), Ryegrass, Italian",[2]; 125 g ai/ha Preemergence,100
same,"Plant response rating, Sedge, Umbrella",[3],95
same,"Oat, Wild plant response rating",[4]; [30],30
same,"Plant response rating (0 to 100 scale), Oat, Wild",[4]; [31],30
same,Kochia plant response rating,[5]; [30],40
same,"Plant response rating (0 to 100 scale), Kochia",[5]; [31],80
same,"Plant response rating (0 to 100 scale), Kochia",[6]; 31 g ai/ha Preemergence,20
same,"Plant response rating (0 to 100 scale), Kochia",[6]; 125 g ai/ha Preemergence,90
same,Soybean plant response rating,[7]; 31 g ai/ha Postemergence,70
same,Soybean plant response rating,[7]; 125 g ai/ha Postemergence,70
same,"Plant response rating (0 to 100 scale), Blackgrass",[8]; 31 g ai/ha Preemergence,80
same,"Plant response rating (0 to 100 scale), Blackgrass",[8]; 125 g ai/ha Preemergence,100
same,Wheat plant response rating,[9]; 31 g ai/ha Postemergence,60
same,Wheat plant response rating,[9]; 125 g ai/ha Postemergence,60
same,"Plant response rating (0 to 100 scale), Pigweed, Palmer",[10]; 31 g ai/ha Preemergence,90
same,"Plant response rating (0 to 100 scale), Pigweed, Palmer",[10]; 125 g ai/ha Preemergence,100
same,"Plant response rating (0 to 100 scale), Foxtail, Giant",[11]; 31 g ai/ha Preemergence,50
same,"Plant response rating (0 to 100 scale), Foxtail, Giant",[11]; 125 g ai/ha Preemergence,100
same,"Plant response rating (0 to 100 scale), Corn",[12]; 31 g ai/ha Preemergence,30
same,"Plant response rating (0 to 100 scale), Corn",[12]; 125 g ai/ha Preemergence,90
same,"Plant response rating, Rice",[13],0
same,Ragweed plant response rating,[14]; 31 g ai/ha Postemergence,40
same,Ragweed plant response rating,[14]; 125 g ai/ha Postemergence,90
same,"Plant response rating (0 to 100 scale), Ragweed",[15]; 31 g ai/ha Preemergence,70
same,"Plant response rating (0 to 100 scale), Ragweed",[15]; 125 g ai/ha Preemergence,90
same,"Plant response rating (0 to 100 scale), Goosegrass",[16]; 31 g ai/ha Preemergence,90
same,"Plant response rating (0 to 100 scale), Goosegrass",[16]; 125 g ai/ha Preemergence,100
same,"Plant response rating (0 to 100 scale), Wheat",[17]; 31 g ai/ha Preemergence,40
same,"Plant response rating (0 to 100 scale), Wheat",[17]; 125 g ai/ha Preemergence,100
same,"Foxtail, Giant plant response rating",[18]; [30],10
same,"Plant response rating (0 to 100 scale), Foxtail, Giant",[18]; [31],30
same,"Pigweed, Palmer plant response rating",[19]; 31 g ai/ha Postemergence,30
same,"Pigweed, Palmer plant response rating",[19]; 125 g ai/ha Postemergence,70
same,Galium plant response rating,[20]; [30],60
same,"Plant response rating (0 to 100 scale), Galium",[20]; [31],80
same,"Ryegrass, Italian plant response rating",[21]; 31 g ai/ha Postemergence,0
same,"Ryegrass, Italian plant response rating",[21]; 125 g ai/ha Postemergence,40
same,Goosegrass plant response rating,[22]; [30],30
same,"Plant response rating (0 to 100 scale), Goosegrass",[22]; [31],90
same,Horseweed plant response rating,[23]; [30],40
same,"Plant response rating (0 to 100 scale), Horseweed",[23]; [31],70
same,Corn plant response rating,[24]; [30],0
same,"Plant response rating (0 to 100 scale), Corn",[24]; [31],20
same,Blackgrass plant response rating,[25],20
same,"Plant response rating, Ducksalad",[26],65
same,"Plant response rating (0 to 100 scale), Blackgrass",[27],30
same,"Plant response rating (0 to 100 scale), Oat, Wild",[28]; 31 g ai/ha Preemergence,30
same,"Plant response rating (0 to 100 scale), Oat, Wild",[28]; 125 g ai/ha Preemergence,90
same,"Plant response rating (0 to 100 scale), Soybean",[29]; 31 g ai/ha Preemergence,90
same,"Plant response rating (0 to 100 scale), Soybean",[29]; 125 g ai/ha Preemergence,90
